Measured values published in US6875451B2, “Compositions and methods for the treatment of primary and metastatic neoplastic diseases using arsenic compounds” (PolaRx Biopharmaceuticals Inc., priority 1997, dated 2005).

Columns and labels:
Type in all cases: cell-based
[1] = system: BT-549; experiment: SRB growth assay, 2 days exposure, breast cancer
Description: (§1) Arsenic trioxide (1 mg/ml, 10 mg/ampoule, manufactured by Taylor Pharmaceuticals, Decatur, Ill.) was tested at five concentrations each at 10-fold dilutions, i.e., 10^−5, 10^−6, 10^−7, 10^−8 and 10^−9 μg/ml.
(§2) The in vitro tests were performed by incubating the test cells in the presence of the indicated concentration of arsenic trioxide under standard culture conditions for a designated period of time, which is followed by a sulforhodamine B (SRB) protein assay to estimate cell viability or growth. The cell lines are organized into subpanels according to the origin of the cell lines, e.g., leukemia, breast cancer, etc. A description of the cell lines and method of testing is described in Monk et al. (1997, Anticancer Drug Des. 12:533-41) and Weinstein et al., (1997, Science 275:343-9), which are incorporated herein in their entirety.
(§3) The measurement of an effect is expressed in Percentage Growth (PG). The measured effect of the compound on a cell line is calculated according to one or the other of the following two expressions: If (Mean ODtest−Mean ODzero)≧0. then PG=100×(Mean ODtest−Mean ODzero)/(Mean ODctrl−Mean ODzero) If (Mean ODtest−Mean ODzero)<0. then PG=100×(Mean ODtest−Mean ODzero)/(Mean ODzero where: • Mean ODzero=the average of optical density measurements of SRB-derived color just before exposure of cells to the test compounds; • Mean ODtest=the average of optical density measurements of SRB-derived color after exposure of cells to the test compound for a designated period of time; and • Mean ODctrl=the average of optical density measurements of SRB-derived color after with no exposure of cells to the test compound for a designated period of time
(§4) The first two columns describe the subpanel (e.g., leukemia) and cell line (e.g., CCRF-CEM) involved. The next two columns list the Mean ODzero and Mean ODctrl; the next five columns list the Mean ODtest for each of five different concentrations. Each concentration is expressed as the log10 (molar or μg/ml). The next five columns list the calculated PGs for each concentration. The response parameters GI50, TGI and LC50 are interpolated values representing the concentrations at which the PG is +50, 0, and −50, respectively. Sometimes these response parameters cannot be obtained by interpolation. If, for instance, all of the PGs in a given row exceed +50, then none of the three parameters can be obtained by interpolation. In such a case, the value given for each response parameter is the highest concentration tested and is preceded by a “>” sign. This practice is extended similarly to the other possible situations where a response parameter cannot be obtained by interpolation.
(§5) In the first set, the cells from 56 different cancer cell lines were exposed to five concentrations of arsenic trioxide continuously for two days prior to performing the SRB assay. In the second set, the cells from 50 different cell lines (a subset of the first 56 cell lines, plus the renal cancer cell line 786-0) were exposed continuously for six days prior to the SRB assay.

[2] = system: HS 578T; experiment: SRB growth assay, 2 days exposure, breast cancer
Description: as §1, §2, §3, §4, §5

[3] = system: NCI/ADR-RES; experiment: SRB growth assay, 2 days exposure, breast cancer
Description: as §1, §2, §3, §4, §5

[4] = system: T-47D; experiment: SRB growth assay, 2 days exposure, breast cancer
Description: as §1, §2, §3, §4, §5

[5] = system: 786-O; experiment: SRB growth assay, 6 days exposure, renal cancer; conditions: 786-0, 6 days
Description: as §1, §2, §3, §4, §5

[6] = system: A498; experiment: SRB growth assay, 6 days exposure, renal cancer; conditions: A498, 6 days
Description: as §1, §2, §3, §4, §5

[7] = system: CAKI-1; experiment: SRB growth assay, 6 days exposure, renal cancer; conditions: CAKI-1, 6 days
Description: as §1, §2, §3, §4, §5

[8] = system: RXF 393; experiment: SRB growth assay, 6 days exposure, renal cancer; conditions: RXF393, 6 days
Description: as §1, §2, §3, §4, §5

[9] = system: S12C; experiment: SRB growth assay, 6 days exposure, renal cancer
Description: as §1, §2, §3, §4, §5

[10] = system: TK-10; experiment: SRB growth assay, 6 days exposure, renal cancer; conditions: TK-10, 6 days
Description: as §1, §2, §3, §4, §5

Substance: arsenic trioxide
- TGI [1]: >0.0126 ng/mL
- Percent Growth ([1]; log10 conc −4.9): 26%
- Percent Growth ([1]; log10 conc −5.9): 84%
- Percent Growth ([1]; log10 conc −6.9): 108%
- Percent Growth ([1]; log10 conc −7.9): 110%
- Percent Growth ([1]; log10 conc −8.9): 114%
- TGI [2]: >0.0126 ng/mL
- Percent Growth ([2]; log10 conc −4.9): 42%
- Percent Growth ([2]; log10 conc −5.9): 105%
- Percent Growth ([2]; log10 conc −6.9): 96%
- Percent Growth ([2]; log10 conc −7.9): 105%
- Percent Growth ([2]; log10 conc −8.9): 109%
- TGI [3]: >0.0126 ng/mL
- Percent Growth ([3]; log10 conc −4.9): 45%
- Percent Growth ([3]; log10 conc −5.9): 92%
- Percent Growth ([3]; log10 conc −6.9): 104%
- Percent Growth ([3]; log10 conc −7.9): 99%
- Percent Growth ([3]; log10 conc −8.9): 118%
- TGI [4]: 0.00986 ng/mL
- Percent Growth ([4]; log10 conc −4.9): −10%
- Percent Growth ([4]; log10 conc −5.9): 81%
- Percent Growth ([4]; log10 conc −6.9): 133%
- Percent Growth ([4]; log10 conc −7.9): 109%
- Percent Growth ([4]; log10 conc −8.9): 88%
- TGI [5]: 2.77E−06
- Mean Optical Densities ([5]; Log 10 Concentration −4.9): −0.003
- Percent Growth ([5]; Log 10 Concentration −4.9): −100%
- Mean Optical Densities ([5]; Log 10 Concentration −5.9): 0.832
- Percent Growth ([5]; Log 10 Concentration −5.9): 52%
- Mean Optical Densities ([5]; Log 10 Concentration −6.9): 1.786
- Percent Growth ([5]; Log 10 Concentration −6.9): 113%
- Mean Optical Densities ([5]; Log 10 Concentration −7.9): 1.821
- Percent Growth ([5]; Log 10 Concentration −7.9): 116%
- Mean Optical Densities ([5]; Log 10 Concentration −8.9): 1.582
- Percent Growth ([5]; Log 10 Concentration −8.9): 100%
- TGI [6]: 4.85E−06
- Mean Optical Densities ([6]; Log 10 Concentration −4.9): 0.025
- Percent Growth ([6]; Log 10 Concentration −4.9): −52%
- Mean Optical Densities ([6]; Log 10 Concentration −5.9): 0.558
- Percent Growth ([6]; Log 10 Concentration −5.9): 73%
- Mean Optical Densities ([6]; Log 10 Concentration −6.9): 0.837
- Percent Growth ([6]; Log 10 Concentration −6.9): 114%
- Mean Optical Densities ([6]; Log 10 Concentration −7.9): 0.764
- Percent Growth ([6]; Log 10 Concentration −7.9): 103%
- Mean Optical Densities ([6]; Log 10 Concentration −8.9): 0.826
- Percent Growth ([6]; Log 10 Concentration −8.9): 112%
- TGI [7]: 2.43E−06
- Mean Optical Densities ([7]; Log 10 Concentration −4.9): 0.004
- Percent Growth ([7]; Log 10 Concentration −4.9): −88%
- Mean Optical Densities ([7]; Log 10 Concentration −5.9): 0.491
- Percent Growth ([7]; Log 10 Concentration −5.9): 35%
- Mean Optical Densities ([7]; Log 10 Concentration −6.9): 1.573
- Percent Growth ([7]; Log 10 Concentration −6.9): 117%
- Mean Optical Densities ([7]; Log 10 Concentration −7.9): 1.725
- Percent Growth ([7]; Log 10 Concentration −7.9): 128%
- Mean Optical Densities ([7]; Log 10 Concentration −8.9): 1.254
- Percent Growth ([7]; Log 10 Concentration −8.9): 93%
- TGI [8]: 2.96E−06
- Mean Optical Densities ([8]; Log 10 Concentration −4.9): 0.017
- Percent Growth ([8]; Log 10 Concentration −4.9): −91%
- Mean Optical Densities ([8]; Log 10 Concentration −5.9): 0.909
- Percent Growth ([8]; Log 10 Concentration −5.9): 54%
- Mean Optical Densities ([8]; Log 10 Concentration −6.9): 1.727
- Percent Growth ([8]; Log 10 Concentration −6.9): 116%
- Mean Optical Densities ([8]; Log 10 Concentration −7.9): 1.301
- Percent Growth ([8]; Log 10 Concentration −7.9): 84%
- Mean Optical Densities ([8]; Log 10 Concentration −8.9): 1.327
- Percent Growth ([8]; Log 10 Concentration −8.9): 86%
- LC50 (concentration killing 50% of cells) [9]: > 12.6 µM
- TGI [9]: 5.67E−06
- Mean Optical Densities ([9]; Log 10 Concentration −4.9): 0.013
- Percent Growth ([9]; Log 10 Concentration −4.9): −46%
- Mean Optical Densities ([9]; Log 10 Concentration −5.9): 0.829
- Percent Growth ([9]; Log 10 Concentration −5.9): 86%
- Mean Optical Densities ([9]; Log 10 Concentration −6.9): 1.113
- Percent Growth ([9]; Log 10 Concentration −6.9): 117%
- Mean Optical Densities ([9]; Log 10 Concentration −7.9): 1.141
- Percent Growth ([9]; Log 10 Concentration −7.9): 120%
- Mean Optical Densities ([9]; Log 10 Concentration −8.9): 0.882
- Percent Growth ([9]; Log 10 Concentration −8.9): 92%
- TGI [10]: >1.26E−05
- Mean Optical Densities ([10]; Log 10 Concentration −4.9): 0.239
- Percent Growth ([10]; Log 10 Concentration −4.9): 13%
- Mean Optical Densities ([10]; Log 10 Concentration −5.9): 1.103
- Percent Growth ([10]; Log 10 Concentration −5.9): 82%
- Mean Optical Densities ([10]; Log 10 Concentration −6.9): 1.334
- Percent Growth ([10]; Log 10 Concentration −6.9): 100%
- Mean Optical Densities ([10]; Log 10 Concentration −7.9): 1.268
- Percent Growth ([10]; Log 10 Concentration −7.9): 95%
- Mean Optical Densities ([10]; Log 10 Concentration −8.9): 1.356
- Percent Growth ([10]; Log 10 Concentration −8.9): 102%
- CC50 ([10]; read-out: LC50 (the source's name)): > 12.6 µM
